PubChem BioAssay (NCI)
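How tested: cells in 96-well plates exposed to compound for 48 hours at five concentrations. Here, GI50 denotes the concentration required for 50% inhibition of growth. TGI denotes the concentration required for complete inhibition of growth.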

Assays:
Test in all cases: NCI anticancer screen, dose series, 48 h
[1] = tested on: BT-549 breast
[2] = tested on: HS 578T breast
[3] = tested on: KM12 colon
[4] = tested on: NCI-H226 lung
[5] = tested on: OVCAR-3 ovarian
[6] = tested on: SF-268 CNS
[7] = tested on: SF-295 CNS
[8] = tested on: SK-MEL-5 melanoma
[9] = tested on: T-47D breast
[10] = tested on: UO-31 renal

`O=C(/C=C/c1ccc(O)c(O)c1)NCc1c[nH]c2ccccc12` was tested, and the GI50 [1] was 78.5 µM, the TGI [1] was greater than 100 µM and the GI50 [2] was 73.7 µM. It also gave a TGI [2] greater than 100 µM, a GI50 [3] of 66.7 µM and a TGI [3] greater than 100 µM. It also gave a GI50 [4] of 71.3 µM, a TGI [4] greater than 100 µM and a GI50 [5] of 28.4 µM. The TGI [5] was greater than 100 µM, the GI50 [6] was 63.8 µM and the TGI [6] was greater than 100 µM. It also gave a GI50 [7] of 62.4 µM, a TGI [7] greater than 100 µM and a GI50 [8] of 32.9 µM. For the same compound, the TGI [8] was greater than 100 µM, the GI50 [9] was greater than 100 µM and the TGI [9] was greater than 100 µM. For the same compound, the GI50 [10] was 36.9 µM and the TGI [10] was greater than 100 µM.

`O=[N+]([O-])c1nccn1CC(O)CN1CCCCC1` (stereo not given) showed a TGI [1] greater than 100 µM, a TGI [2] greater than 100 µM and a TGI [3] greater than 100 µM. For the same compound, the TGI [4] was greater than 100 µM, the TGI [5] was greater than 100 µM and the TGI [6] was greater than 100 µM. For the same compound, the TGI [7] was greater than 100 µM, the TGI [8] was greater than 100 µM and the TGI [9] was greater than 100 µM. It also gave a TGI [10] greater than 100 µM.

`Cc1cc(Nc2nc(C(=O)Nc3ccccc3)nc3ccccc23)n[nH]1` showed a GI50 [1] of 15.7 µM, a TGI [1] greater than 25 µM and a GI50 [2] of 7.68 µM. The TGI [2] was greater than 25 µM, the GI50 [3] was 3.68 µM and the TGI [3] was greater than 25 µM. It also gave a GI50 [4] of 10 µM, a TGI [4] greater than 25 µM and a GI50 [5] of 11.5 µM. The TGI [5] was greater than 25 µM, the GI50 [6] was 9.25 µM and the TGI [6] was greater than 25 µM. The GI50 [7] was 7.82 µM, the TGI [7] was greater than 25 µM and the GI50 [8] was 22.5 µM. For the same compound, the TGI [8] was greater than 25 µM, the GI50 [9] was 6.61 µM and the TGI [9] was greater than 25 µM. It also gave a GI50 [10] of 1.3 µM and a TGI [10] greater than 25 µM.

Compound `CC1CN(S(=O)(=O)c2oc(-c3ccc(Cl)cc3)nc2C#N)CC(C)O1` (stereo not given) has a GI50 [1] of 1.97 µM, a TGI [1] of 4.49 µM and a GI50 [2] of 3.92 µM. The TGI [2] was 27.2 µM, the GI50 [3] was 10.3 µM and the TGI [3] was 23.5 µM. For the same compound, the GI50 [4] was 18.1 µM, the TGI [4] was 39.9 µM and the GI50 [5] was 1.56 µM. For the same compound, the TGI [5] was 3.12 µM, the GI50 [6] was 1.93 µM and the TGI [6] was 4.14 µM. It also gave a GI50 [7] of 13.8 µM, a TGI [7] of 27.2 µM and a GI50 [8] of 2.27 µM. The TGI [8] was 5.16 µM, the GI50 [9] was 2.3 µM and the TGI [9] was 6.24 µM. For the same compound, the GI50 [10] was 1.56 µM and the TGI [10] was 2.91 µM.

With `CCCCCCCCOC(=O)c1c(C)[nH]c(/C=C2\N=C(c3ccc[nH]3)C=C2OC)c1C` the GI50 [1] was 0.164 µM, the TGI [1] was 14.4 µM and the GI50 [2] was 0.0494 µM. It also gave a TGI [2] of 0.578 µM, a GI50 [3] of 0.0355 µM and a TGI [3] of 1.97 µM. For the same compound, the GI50 [4] was 0.0873 µM, the TGI [4] was 6.26 µM and the GI50 [5] was 0.0276 µM. For the same compound, the TGI [5] was 0.422 µM, the GI50 [6] was 0.0498 µM and the TGI [6] was 7.2 µM. The GI50 [7] was 0.0779 µM, the TGI [7] was 0.639 µM and the GI50 [8] was 0.0169 µM. The TGI [8] was 0.0819 µM, the GI50 [9] was 0.0556 µM and the TGI [9] was 10.4 µM. For the same compound, the GI50 [10] was 0.0377 µM and the TGI [10] was 0.108 µM.
